Reference: PubChem BioAssay (NCI)
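These data come from cells grown in 96-well plates and exposed to compound for 48 hours at five concentrations. GI50: concentration for 50% inhibition of growth. TGI marks complete inhibition of growth.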

Key:
Assay in all cases: inhibition of tumour cell growth, NCI panel, 48 h
SW-620 colon = test system: SW-620 colon
UACC-257 melanoma = test system: UACC-257 melanoma
786-0 renal = test system: 786-0 renal
HCC-2998 colon = test system: HCC-2998 colon
CAKI-1 renal = test system: CAKI-1 renal
SF-539 CNS = test system: SF-539 CNS
M14 melanoma = test system: M14 melanoma
IGROV1 ovarian = test system: IGROV1 ovarian
NCI-H460 lung = test system: NCI-H460 lung
DU-145 prostate = test system: DU-145 prostate

Compound | GI50 (SW-620 colon) | TGI (SW-620 colon) | GI50 (UACC-257 melanoma) | TGI (UACC-257 melanoma) | GI50 (786-0 renal) | TGI (786-0 renal) | GI50 (HCC-2998 colon) | TGI (HCC-2998 colon) | GI50 (CAKI-1 renal) | TGI (CAKI-1 renal) | GI50 (SF-539 CNS) | TGI (SF-539 CNS) | GI50 (M14 melanoma) | TGI (M14 melanoma) | GI50 (IGROV1 ovarian) | TGI (IGROV1 ovarian) | GI50 (NCI-H460 lung) | TGI (NCI-H460 lung) | GI50 (DU-145 prostate) | TGI (DU-145 prostate)
CCOC(=O)C(=Cc1cccc(Cl)c1)C(=O)OCC | 2.03 µM | 4.1 µM | 5.05 µM | 18 µM | 1.93 µM | 4.26 µM | 1.79 µM | 3.24 µM | 2.19 µM | 5.45 µM | 1.66 µM | 3.14 µM | 2 µM | 4.56 µM | 2.4 µM | 7.85 µM | 3.71 µM | 12.6 µM | 2.21 µM | 5.4 µM
N#C/C=C(\c1ccc([N+](=O)[O-])cc1)n1nnc2cc(Cl)c(Cl)cc21 | 1.75 µM | 4.15 µM | 2.06 µM | 4.53 µM | 2.09 µM | 3.58 µM | 1.77 µM | 3.33 µM | 1.37 µM | 2.91 µM | 1.77 µM | 3.26 µM | 1.86 µM | 4.5 µM | 1.82 µM | 4.08 µM | 2.36 µM | 6.98 µM | 1.65 µM | 3.3 µM
C[C@H]1Oc2cc(cnc2N)-c2c(nn(C)c2C#N)CN(C)C(=O)c2ccc(F)cc21 | 35.6 µM | > 100 µM | 25.8 µM | > 100 µM | 36.2 µM | > 100 µM | > 89 µM | > 100 µM | 18.3 µM | > 100 µM | 59.5 µM | > 100 µM | 48.9 µM | > 100 µM | 28.1 µM | > 100 µM | 28.2 µM | > 100 µM | 26.6 µM | > 100 µM
O=c1[nH]c(=O)n(C2CC(O)C(CO)O2)cc1CO (stereo not given) | > 100 µM | > 100 µM | > 100 µM | > 100 µM | 5.33 µM | > 100 µM | > 100 µM | > 100 µM | > 100 µM | > 100 µM | 21.1 µM | > 100 µM | > 100 µM | > 100 µM | > 100 µM | > 100 µM | 37.1 µM | > 100 µM | > 100 µM | > 100 µM
CC(=O)OC12c3ccccc3-c3ccccc3C1C1C(=O)N(C)C(=O)C12Cl (stereo not given) |  | > 10 µM |  | > 10 µM |  | > 10 µM |  | > 10 µM |  | > 10 µM |  | > 10 µM |  | > 10 µM |  | > 10 µM |  | > 10 µM |  | > 10 µM
COc1ccncc1C#Cc1cncc(C(=O)Nc2ccc(CN3CCN(C)CC3)c(C(F)(F)F)c2)c1 | 14.6 µM | 64.3 µM | 21.5 µM | > 100 µM | 35.8 µM | > 100 µM | 24.8 µM | > 100 µM | 22.6 µM | > 100 µM | 5.39 µM | 66.6 µM | 10.1 µM | 39.6 µM | 8.57 µM | 84.2 µM | 16.1 µM | 71 µM | 25.7 µM | > 100 µM
O=c1c2ccccc2sc2cccc(NCCCN3CCN(CCCNc4cccc5sc6ccccc6c(=O)c45)CC3)c12 |  | > 100 µM |  | > 100 µM |  | > 100 µM |  | > 100 µM |  | > 100 µM |  | > 100 µM |  | > 100 µM |  | > 100 µM |  | > 100 µM |  | > 100 µM
